Assay results as given in patent publication US20050085644A1, “Novel 3-aryl-2,5-dihydroxy-1,4-benzoquinone derivatives, their preparation method and pharmaceutical compositions containing same” (priority 2002, published 2005).

How the values were obtained:
ob/ob C57BL/6 mice = experiment: Chronic in vivo study in ob/ob mice; conditions: female ob/ob C57BL/6 mice, 9 days, 10 or 20 mg/kg po
Protocol: 11-week-old female ob/ob C57BL/6 mice randomly selected in terms of basal glycaemia from animals that have been fed are treated for 9 days with the test compound at 10 or 20 mg/kg po and compared with a control group receiving 1% HEC. Biological balance (glycaemia, insulinaemia, triglyceridaemia) is reached on the 10th day with the animals that have been fed, the final treatment having taken place the day before. The results are expressed as percentage variations in relation to D0 (glycaemia, body weight) compared with the control group.

protein kinase B = experiment: Activation (phosphorylation) of protein kinase B in CHO-HIR cells, immunoblotting; type: cell-based, hamster; conditions: 10^−5M, two hours at 37° C.
Protocol: (§1) The pharmacological effect of the compounds of the invention on cellular signaling is evaluated in vitro using hamster ovary cells transfected with human insulin receptors (CHO-HIR). The techniques employed are from TAVARE and DENTON (1988, BIOCHEM. J., 250, 509-519) and TAVARE et al. (1988, Biochem. J., 253, 783-788) modified by ISSAD et al. (1991, Biochem. J., 275, 15-21) and COMBETTES-SOUVERAIN et al. (1997, Diabetologia, 40, 533-540).
(§2) The products are studied at 10^−5M under incubation for two hours at 37° C. with CHO-HIR in culture. A negative control (solvent) and a positive control (insulin 50 nM, 5 min incubation) are used in parallel in the same test. […]
(§3) The phosphorylation of the insulin receptors (IR) and the phosphorylation of protein kinase B are evaluated by immunoblotting as follows.
Similarly, the state of phosphorylation of protein kinase B following electrophoresis of the samples on 10% polyacrylamide gel is determined by chemiluminescence after immunoblotting with anti-phospho protein kinase B antibodies (phospho Akt(Ser473) antibody, ref 9271, Cell Signaling) and then related to the total protein kinase B quantity (AKT antibody, ref 9272, Cell signaling).
The phosphorylation induced by the compounds of the invention is expressed as a percentage in relation to 50 nM insulin, fixed at 100% activation.

human insulin receptors = target: T1, human insulin receptors (Homo sapiens, UniProt P06213); experiment: Activation (phosphorylation) of insulin receptors in CHO-HIR cells, immunoblotting; type: cell-based; conditions: 2 h, 10^−5M, two hours at 37° C., read-out: activation percentage for insulin receptors (phosphorylation in relation to 50 nM insulin fixed at 100%)
T1 construct: expressed in transfected cells; host or cells: CHO-HIR (hamster ovary cells)
T1 sequence (P06213 28-758 limits assumed): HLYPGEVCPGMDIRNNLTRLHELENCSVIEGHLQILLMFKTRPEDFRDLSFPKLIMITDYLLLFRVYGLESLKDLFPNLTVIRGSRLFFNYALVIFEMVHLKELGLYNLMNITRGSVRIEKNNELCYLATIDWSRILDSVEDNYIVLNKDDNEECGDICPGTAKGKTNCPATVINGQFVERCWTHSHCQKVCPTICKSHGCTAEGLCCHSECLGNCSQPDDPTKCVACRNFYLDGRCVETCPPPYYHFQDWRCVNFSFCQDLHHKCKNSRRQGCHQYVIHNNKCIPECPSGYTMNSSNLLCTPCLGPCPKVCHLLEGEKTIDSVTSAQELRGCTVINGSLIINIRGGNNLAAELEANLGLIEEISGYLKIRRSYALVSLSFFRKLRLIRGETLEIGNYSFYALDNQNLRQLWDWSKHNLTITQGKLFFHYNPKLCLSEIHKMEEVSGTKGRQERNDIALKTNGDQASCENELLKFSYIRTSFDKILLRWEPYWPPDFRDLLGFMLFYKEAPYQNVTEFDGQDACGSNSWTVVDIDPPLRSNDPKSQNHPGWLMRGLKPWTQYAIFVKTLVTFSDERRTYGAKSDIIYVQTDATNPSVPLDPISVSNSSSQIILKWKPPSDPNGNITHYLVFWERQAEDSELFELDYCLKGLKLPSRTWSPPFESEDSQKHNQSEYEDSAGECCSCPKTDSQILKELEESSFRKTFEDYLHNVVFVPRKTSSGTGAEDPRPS
Protocol: as §1, §2, §3
The IR are extracted over wheatgerm lectin; the samples are then subjected to electrophoresis on 7.5% polyacrylamide gel and subjected to an electric transfer onto PDVF membrane in a semi-dry system. […] After dehydridisation and then rehydridisation with an anit-insulin receptor β subunit antibody (βsubunit, ref 06492, Upstate Biotechnology), the total IR quantity deposited on blot is evaluated by chemiluminescence and the phosphorylation rate of the receptors is related to the total receptor quantity deposited. […]

Row | Compound | melting point | activation at 10 µM (human insulin receptors) | activation percentage for protein kinase B (phosphorylation in relation to 50 nM insulin fixed at 100%) (protein kinase B) | also measured
1 | O=C1C(O)=C(c2ccc3ccccc3c2)C(=O)C(O)=C1c1ccc(Cl)cc1 [Example 16, 2-(4-Chlorophenyl)-3,6-dihydroxy-5-(2-naphthyl)-1,4-benzoquinone] |  |  |  | insulinaemia, variation compared with the controls (ob/ob C57BL/6 mice; fed, 10th day): −84.2%; glycaemia, percentage variation in relation to D0 (ob/ob C57BL/6 mice; fed, 10th day, controls +4.5%): −60.7%; body weight, percentage variation in relation to D0 (ob/ob C57BL/6 mice; control group +4.9%): −26.9%
2 | C/C(=C\c1ccccc1)C1=C(O)C(=O)C(c2ccccc2)=C(O)C1=O [Example 10, 2,5-Dihydroxy-3-[(E)-1-methyl-2-phenylethenyl]-6-phenyl-1,4-benzoquinone] |  |  | 91% | 
3 | O=C1C(O)=C(c2cccc(Cl)c2)C(=O)C(O)=C1/C=C/c1ccccc1 [Example 30, 2-(3-Chlorophenyl)-3,6-dihydroxy-5-[(E)-2-phenylethenyl]-1,4-benzoquinone] |  | 134% |  | 

Continued, in another order:

Row | melting point | activation at 10 µM (human insulin receptors) | Compound | activation percentage for protein kinase B (phosphorylation in relation to 50 nM insulin fixed at 100%) (protein kinase B) | also measured
4 | 240 to 241 °C |  | O=C1C(O)=C(c2ccccc2)C(=O)C(O)=C1/C=C/c1ccc(Br)cc1 [Example 3, 2,5-Dihydroxy-3-phenyl-6-[(E)-2-(4-bromophenyl)-ethenyl]-1,4-benzoquinone] |  | 
5 | 259 to 260 °C |  | O=C1C(O)=C(c2ccccc2)C(=O)C(O)=C1/C=C/c1ccccc1 [Example 1, 2,5-Dihydroxy-3-phenyl-6-[(E)-2-phenylethenyl]-1,4-benzoquinone] |  | triglycerides, reduction compared with the control (ob/ob C57BL/6 mice; fed, 10th day): −37.8%
6 |  | 87.7% | O=C1C(O)=C(c2ccccc2)C(=O)C(O)=C1/C=C/c1ccc(F)cc1 [Example 27, 2-[(E)-2-(4-Fluorophenyl)ethenyl]-3,6-dihydroxy-5-phenyl-1,4-benzoquinone] | 48.9% | 
